Experimental data reported in patent US20120283295A1, “INDAZOLE DERIVATIVES AND THEIR USE FOR BLOCKADING VOLTAGE DEPENDENT SODIUM CHANNELS” (University College London, priority 2009, published 2012).
Where two headings read alike, the source gives them in different places.

Legend:
[1] = tested on: voltage dependent sodium channels; assay: Sodium channel activity, guanidine flux; assay type: cell-based
Protocol: (§2) Biological assays to determine sodium channel activity, neuroprotection and Nav isoform selectivity were carried out according to the protocols set out in Clutterbuck et al (2009), J. Med. Chem. 52, 2694-2707.

Nav1.6 = Nav1.6 (Homo sapiens, UniProt Q9UQD0); assay: Nav isoform selectivity, Nav1.6; assay type: cell-based; parameters: concentration or dose not given beside the values
Nav1.1 = Nav1.1 (Homo sapiens, UniProt P35498); assay: Nav isoform selectivity, Nav1.1; assay type: cell-based
Protocol: as §2

Nav1.7 = Nav1.7 (Homo sapiens, UniProt Q15858); assay: Nav isoform selectivity, Nav1.7; assay type: cell-based; parameters: concentration or dose not given beside the values
Chain of Nav1.7 (Q15858 whole entry, canonical isoform): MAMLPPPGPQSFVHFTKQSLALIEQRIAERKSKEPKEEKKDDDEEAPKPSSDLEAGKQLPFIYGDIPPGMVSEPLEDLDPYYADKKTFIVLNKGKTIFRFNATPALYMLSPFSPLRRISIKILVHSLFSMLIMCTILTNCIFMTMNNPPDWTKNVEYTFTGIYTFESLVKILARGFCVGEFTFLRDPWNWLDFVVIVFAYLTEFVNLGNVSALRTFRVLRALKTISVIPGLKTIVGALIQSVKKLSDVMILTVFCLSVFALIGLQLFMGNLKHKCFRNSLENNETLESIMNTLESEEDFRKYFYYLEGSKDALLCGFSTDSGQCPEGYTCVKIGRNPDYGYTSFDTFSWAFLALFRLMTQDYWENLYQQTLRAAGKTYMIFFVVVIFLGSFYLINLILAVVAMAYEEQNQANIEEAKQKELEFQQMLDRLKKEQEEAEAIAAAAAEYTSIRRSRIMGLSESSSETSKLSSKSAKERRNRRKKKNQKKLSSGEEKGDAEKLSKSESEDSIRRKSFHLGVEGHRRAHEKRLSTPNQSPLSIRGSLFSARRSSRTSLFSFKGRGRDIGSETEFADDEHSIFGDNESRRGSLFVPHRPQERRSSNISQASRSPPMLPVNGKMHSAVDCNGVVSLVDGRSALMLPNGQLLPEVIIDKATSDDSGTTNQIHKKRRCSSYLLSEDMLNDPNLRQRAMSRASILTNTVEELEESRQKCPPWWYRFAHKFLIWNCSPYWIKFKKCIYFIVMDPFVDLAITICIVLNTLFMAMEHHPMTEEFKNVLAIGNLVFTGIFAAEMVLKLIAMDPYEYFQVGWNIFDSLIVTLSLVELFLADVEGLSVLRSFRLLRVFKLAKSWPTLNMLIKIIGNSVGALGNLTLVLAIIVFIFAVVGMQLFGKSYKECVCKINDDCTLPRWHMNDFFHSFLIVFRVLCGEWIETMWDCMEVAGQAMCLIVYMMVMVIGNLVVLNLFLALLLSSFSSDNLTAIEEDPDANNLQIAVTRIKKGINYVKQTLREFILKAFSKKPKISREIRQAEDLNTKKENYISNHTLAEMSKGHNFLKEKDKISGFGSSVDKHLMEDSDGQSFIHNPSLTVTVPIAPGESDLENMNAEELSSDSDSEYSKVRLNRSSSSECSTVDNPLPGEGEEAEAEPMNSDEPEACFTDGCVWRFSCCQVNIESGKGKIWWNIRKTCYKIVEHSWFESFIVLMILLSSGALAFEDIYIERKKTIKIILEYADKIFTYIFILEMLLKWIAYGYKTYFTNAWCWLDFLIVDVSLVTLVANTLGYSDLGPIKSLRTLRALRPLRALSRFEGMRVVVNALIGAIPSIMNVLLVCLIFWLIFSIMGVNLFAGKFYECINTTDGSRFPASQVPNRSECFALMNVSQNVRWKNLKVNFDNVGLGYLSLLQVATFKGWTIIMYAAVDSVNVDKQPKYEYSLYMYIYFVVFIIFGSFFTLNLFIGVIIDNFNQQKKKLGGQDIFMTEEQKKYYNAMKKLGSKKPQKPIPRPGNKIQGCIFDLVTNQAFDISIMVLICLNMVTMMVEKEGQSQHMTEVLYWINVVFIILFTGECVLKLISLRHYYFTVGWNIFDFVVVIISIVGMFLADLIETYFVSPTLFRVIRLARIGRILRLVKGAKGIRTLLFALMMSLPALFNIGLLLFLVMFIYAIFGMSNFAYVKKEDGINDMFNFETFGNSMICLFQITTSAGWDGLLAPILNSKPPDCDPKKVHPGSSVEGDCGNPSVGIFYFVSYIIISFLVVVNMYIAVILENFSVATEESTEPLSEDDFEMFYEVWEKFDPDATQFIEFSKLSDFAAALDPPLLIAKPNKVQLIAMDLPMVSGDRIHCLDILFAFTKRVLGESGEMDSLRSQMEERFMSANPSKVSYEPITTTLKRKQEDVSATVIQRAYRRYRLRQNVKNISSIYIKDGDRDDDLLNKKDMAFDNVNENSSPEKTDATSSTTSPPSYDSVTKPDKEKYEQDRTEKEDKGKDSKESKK

Nav1.5 [2] = target: T1, Nav1.5 (Homo sapiens, UniProt Q14524); assay: Nav isoform selectivity, Nav1.5
T1 sequence (Q14524 whole entry, canonical isoform): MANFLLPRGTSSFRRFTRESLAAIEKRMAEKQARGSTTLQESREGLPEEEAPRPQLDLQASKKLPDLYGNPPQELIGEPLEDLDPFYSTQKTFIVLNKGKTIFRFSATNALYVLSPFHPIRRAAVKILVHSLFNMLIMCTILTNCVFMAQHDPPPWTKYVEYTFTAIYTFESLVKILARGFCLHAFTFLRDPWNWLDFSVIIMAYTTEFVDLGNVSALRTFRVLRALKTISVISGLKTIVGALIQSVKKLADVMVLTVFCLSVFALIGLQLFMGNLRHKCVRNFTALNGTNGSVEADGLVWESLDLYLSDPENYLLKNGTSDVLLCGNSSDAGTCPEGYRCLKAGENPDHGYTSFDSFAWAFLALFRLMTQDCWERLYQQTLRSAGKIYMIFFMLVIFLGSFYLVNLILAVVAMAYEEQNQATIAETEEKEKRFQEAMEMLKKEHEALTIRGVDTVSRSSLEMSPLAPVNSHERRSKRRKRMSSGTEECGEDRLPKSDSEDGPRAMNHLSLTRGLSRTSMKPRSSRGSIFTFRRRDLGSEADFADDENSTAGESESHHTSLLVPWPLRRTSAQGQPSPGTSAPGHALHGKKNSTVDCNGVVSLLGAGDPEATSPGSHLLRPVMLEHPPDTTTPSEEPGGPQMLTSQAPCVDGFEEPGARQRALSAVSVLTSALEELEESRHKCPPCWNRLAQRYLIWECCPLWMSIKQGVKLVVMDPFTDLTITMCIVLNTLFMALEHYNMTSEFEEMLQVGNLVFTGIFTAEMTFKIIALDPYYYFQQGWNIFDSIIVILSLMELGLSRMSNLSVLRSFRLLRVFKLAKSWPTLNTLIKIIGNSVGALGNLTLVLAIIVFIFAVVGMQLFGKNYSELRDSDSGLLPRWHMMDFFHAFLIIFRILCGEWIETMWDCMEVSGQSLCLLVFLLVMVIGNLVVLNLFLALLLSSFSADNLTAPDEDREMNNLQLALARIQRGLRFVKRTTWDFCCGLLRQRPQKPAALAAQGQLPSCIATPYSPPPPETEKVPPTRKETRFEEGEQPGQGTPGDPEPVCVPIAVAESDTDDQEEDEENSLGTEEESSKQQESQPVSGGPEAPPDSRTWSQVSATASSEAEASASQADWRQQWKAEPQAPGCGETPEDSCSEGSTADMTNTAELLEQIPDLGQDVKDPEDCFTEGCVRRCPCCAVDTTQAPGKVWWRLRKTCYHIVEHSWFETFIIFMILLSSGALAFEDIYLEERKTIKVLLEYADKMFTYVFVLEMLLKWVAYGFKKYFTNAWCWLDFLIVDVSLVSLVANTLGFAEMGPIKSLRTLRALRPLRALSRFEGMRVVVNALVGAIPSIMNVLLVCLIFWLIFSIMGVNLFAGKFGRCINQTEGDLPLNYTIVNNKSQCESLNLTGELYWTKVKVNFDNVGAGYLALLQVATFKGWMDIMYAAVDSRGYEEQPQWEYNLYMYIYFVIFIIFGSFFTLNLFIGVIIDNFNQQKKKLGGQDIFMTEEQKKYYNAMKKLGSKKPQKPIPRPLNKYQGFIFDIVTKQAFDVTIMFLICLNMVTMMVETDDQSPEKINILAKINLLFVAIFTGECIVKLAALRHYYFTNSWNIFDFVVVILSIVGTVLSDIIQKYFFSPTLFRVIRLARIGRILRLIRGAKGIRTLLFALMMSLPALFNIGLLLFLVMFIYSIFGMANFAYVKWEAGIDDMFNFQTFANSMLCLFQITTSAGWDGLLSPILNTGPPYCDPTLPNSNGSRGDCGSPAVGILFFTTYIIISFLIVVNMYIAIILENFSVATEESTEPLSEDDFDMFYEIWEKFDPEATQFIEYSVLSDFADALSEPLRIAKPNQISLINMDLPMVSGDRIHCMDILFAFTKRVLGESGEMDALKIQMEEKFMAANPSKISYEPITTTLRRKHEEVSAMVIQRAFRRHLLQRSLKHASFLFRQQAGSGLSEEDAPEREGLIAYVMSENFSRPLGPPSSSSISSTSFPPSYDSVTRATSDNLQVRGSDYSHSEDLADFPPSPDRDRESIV

Nav1.3 = Nav1.3 (Homo sapiens, UniProt Q9NY46); assay: Nav isoform selectivity, Nav1.3; assay type: cell-based; parameters: concentration or dose not given beside the values
Nav1.8 = Nav1.8 (Homo sapiens, UniProt Q9Y5Y9); assay: Nav isoform selectivity, Nav1.8; assay type: cell-based; parameters: concentration or dose not given beside the values
Nav1.4 = Nav1.4 (Homo sapiens, UniProt P35499); assay: Nav isoform selectivity, Nav1.4; assay type: cell-based; parameters: concentration or dose not given beside the values
Nav1.2 = Nav1.2 (Homo sapiens, UniProt Q99250); assay: Nav isoform selectivity, Nav1.2 (EP); assay type: cell-based; parameters: concentration or dose not given beside the values
Nav1.5 [3] = target: T1, Nav1.5
[4] = tested on: lymph node proliferative responses; assay: Immunosuppressive activity, contact-hypersensitivity paradigm; assay type: in vivo; conditions: daily i.p. 5, 25 and 50 mg/kg from a day before sensitization; compared to vehicle
Protocol: (§1) The immunosuppressive activity of Example 15 was investigated using a simple contact-hypersensitivity paradigm. […] (Data not shown). Therefore, it was not necessary to dose-titrate Example 15 in order to avoid the immunosuppression-induced neuroprotection that would mask any real neuroprotective action of Example 15. In order to limit animal usage required for a full-dose-response, as proof-of-principle, 10 mg/kg of Example 15 i.p. was selected as an initial dose for study. This dose was within the range used in humans for sodium channel-blocking agents (1-50 mg/kg p.o.), particularly when scaled to mouse (USDHHS, 2005), and was well below the maximum tolerated dose (>50 mg/kg/daily). This was investigated for a neuroprotective potential in an induced-relapse during experimental autoimmune encephalomyelitis (EAE).
T cell proliferation per 5×10^5 lymph node cells or proliferation adjusted for the number of cells in the lymph nodes is shown in FIGS. 2 and 3.

[5] = tested on: induced-relapse EAE in ABH mice; assay: Induced-relapse experimental autoimmune encephalomyelitis (EAE); assay type: in vivo
Source text: In many rodent models of MS, particularly during EAE the ABH mice, there is limited demyelination and nerve damage during the initial acute-phase of paralysis that occurs 2-3 weeks following sensitization (Baker et al. 1990, Jackson et al. 2005). Nerve damage and demyelination becomes more pronounced with disease duration and the development of relapsing disease (Baker et al. 1990). The neuroprotective potential of Example 15 was therefore examined in an induced-relapse EAE paradigm.
ABH mice were injected with 1 mg mouse spinal cord homogenate in Freunds adjuvant on days 0 and 7 p.i. to induce EAE and this was repeated on 27 p.i. to induce a relapse. Animals were injected daily i.p. with either vehicle or 10 mg/kg Example 15 from day 33 onwards. Animals were monitored for the development of clinical disease and the results represent: (A) The mean maximal clinical score, during the initial acute attack around day 15-20 and the clinical relapse around day 34-40, or the mean minimal clinical score during remission from paralytic attacks. (B) The mean daily clinical score following induction of relapse. (C) The time taken to fall from an accelerating rotorod was monitored pre-treatment on day 25 or on day 48 post-disease induction, when the experiment was terminated. (D) The spinal cords were removed and nerve content was measured using a neurofilament heavy chain (Nfh)-specific ELISA. The results represent the mean±SEM of 8 animals per group. *P<0.05, **P<0.01, ***P<0.001 compared to vehicle-treated animals.

[6] = in vivo
Protocol: as §1

[7] = 10 mg/kg daily i.p. from day 33, vs vehicle

Row | IC50 [1] [µM] | Nav isoform inhibition (%) Nav1.6 (Nav1.6) [%] | Nav isoform inhibition (%) Nav1.1 (Nav1.1) [%] | Nav isoform inhibition (%) Nav1.7 (Nav1.7) [%] | Nav isoform inhibition (%) Nav1.3 (Nav1.3) [%] | Nav isoform inhibition (%) Nav1.8 (Nav1.8) [%] | Nav isoform inhibition (%) Nav1.4 (Nav1.4) [%] | Nav isoform inhibition (%) Nav1.2 EP (Nav1.2) [%] | Nav isoform inhibition (%) Nav1.2 EP UD (Nav1.2) | SMILES | Nav isoform inhibition (%) Nav1.5 (Nav1.5 [2]) [%] | other results
1 | 4 | – | – | – | – | – | – | – | – | COc1cccc(C(=O)NCc2noc(-c3c4ccccc4nn3CCn3ccnc3)n2)c1OC [Example 7, N-((5-(2-(2-(1H-imidazol-1-yl)ethyl)-2H-indazol-3-yl)-1,2,4-oxadiazol-3-yl)methyl)-2,3-dimethoxybenzamide] | – | –
2 | 11 | – | – | – | – | – | – | – | – | CC(C)(C)OC(=O)NCc1noc(-c2c3ccccc3nn2CCn2ccnc2)n1 [Example 2, tert-butyl (5-(2-(2-(1H-imidazol-1-yl)ethyl)-2H-indazol-3-yl)-1,2,4-oxadiazol-3-yl)methylcarbamate] | – | –
3 | – | 86 | 83 | 33 | 63 | 91 | 97 | – | – | O=C(NCc1noc(-c2c3ccccc3nn2CCn2ccnc2)n1)c1ccc2ccccc2c1 [Example 11, N-((5-(2-(2-(1H-imidazol-1-yl)ethyl)-2H-indazol-3-yl)-1,2,4-oxadiazol-3-yl)methyl)-2-naphthamide] | 98 | –
4 | 34 | 73 | 56 | 96 | 54 | 87 | 45 | 24.4 | 24.1% | COc1cccc(C(=O)NCc2noc(-c3c4ccccc4nn3CCn3ccnc3)n2)c1OC [Example 6, N-((5-(2-(2-(1H-imidazol-1-yl)ethyl)-2H-indazol-3-yl)-1,2,4-oxadiazol-3-yl)methyl)-2,3-dimethoxybenzamide] | 99 | –
5 | – | 76 | 54 | 81 | 51 | 84 | 77 | – | – | O=C(NCc1noc(-c2c3ccccc3nn2CCn2ccnc2)n1)c1cccc(F)c1F [Example 10, N-((5-(2-(2-(1H-imidazol-1-yl)ethyl)-2H-indazol-3-yl)-1,2,4-oxadiazol-3-yl)methyl)-2,3-difluorobenzamide] | 84 | –
6 | 32 | 79 | 96 | 46 | 41 | 94 | 98 | 98.5 | not detected | O=C(NCc1noc(-c2c3ccccc3nn2CCn2ccnc2)n1)c1cccc(OC(F)(F)F)c1 [Example 14, N-((5-(2-(2-(1H-imidazol-1-yl)ethyl)-2H-indazol-3-yl)-1,2,4-oxadiazol-3-yl)methyl)-3-(trifluoromethoxy)benzamide] | 95 | –
7 | 102 | – | – | – | – | – | – | – | – | CC(C)(C)OC(=O)NCc1noc(-c2nn(CCn3ccnc3)c3ccccc23)n1 [Example 1, tert-butyl (5-(1-(2-(1H-imidazol-1-yl)ethyl)-1H-indazol-3-yl)-1,2,4-oxadiazol-3-yl)methylcarbamate] | – | –
8 | 324 | – | – | – | – | – | – | – | – | O=C(NCc1noc(-c2c3ccccc3nn2CCn2ccnc2)n1)c1ccccc1 [Example 5, N-((5-(2-(2-(1H-imidazol-1-yl)ethyl)-2H-indazol-3-yl)-1,2,4-oxadiazol-3-yl)methyl)benzamide] | – | –
9 | – | 77 | 26 | 94 | 14 | 62 | 33 | 0.1 | 6.4% | COc1cccc(C(=O)NCc2noc(-c3nn(CCn4ccnc4)c4ccccc34)n2)c1OC [Example 30, N-((5-(1-(2-(1H-imidazol-1-yl)ethyl)-1H-indazol-3-yl)-1,2,4-oxadiazol-3-yl)methyl)-2,3-dimethoxybenzamide] | 71 | –
10 | – | – | – | – | – | – | – | – | – | O=C(NCc1noc(-c2nn(CCn3ccnc3)c3ccccc23)n1)c1ccccc1 [Example 15, N-((5-(1-(2-(1H-imidazol-1-yl)ethyl)-1H-indazol-3-yl)-1,2,4-oxadiazol-3-yl)methyl)benzamide] | – | Inhibition of lymph node proliferative responses [4]: failed to inhibit; Loss of motor-function as a consequence of relapse, rotarod ([5]; 10 mg/kg daily i.p. from day 33, day 48, vs vehicle): significantly (P<0.001) reduced; Incidence, onset or maximum severity of relapsing EAE [5, 7]: did not significantly (P>0.05) inhibit; Nerve loss in spinal cord, neurofilament heavy chain ELISA [5, 7]: reduce nerve loss; Recovery of motor-function during remission (clinical score) [5, 7]: significantly (P<0.01) greater degree of recovery; Maximum tolerated dose [6]: > 50 mg/kg/daily
11 | 22 | – | – | – | – | – | – | – | – | O=C(NCc1noc(-c2c3ccccc3nn2CCn2ccnc2)n1)c1ccc(Cl)cc1 [Example 9, N-((5-(2-(2-(1H-imidazol-1-yl)ethyl)-2H-indazol-3-yl)-1,2,4-oxadiazol-3-yl)methyl)-4-chlorobenzamide] | – | –

Row | SMILES | IC50 [1] [µM] | Nav isoform inhibition (%) Nav1.6 (Nav1.6) [%] | Nav isoform inhibition (%) Nav1.1 (Nav1.1) [%] | Nav isoform inhibition (%) Nav1.7 (Nav1.7) [%] | Nav isoform inhibition (%) Nav1.3 (Nav1.3) [%] | Nav isoform inhibition (%) Nav1.8 (Nav1.8) [%] | Nav isoform inhibition (%) Nav1.4 (Nav1.4) [%] | Nav isoform inhibition (%) Nav1.2 EP (Nav1.2) [%] | Nav isoform inhibition (%) Nav1.2 EP UD (Nav1.2) | Nav isoform inhibition (%) Nav1.5 (Nav1.5 [2]) [%] | other results
12 | COc1ccc(C(=O)NCc2noc(-c3nn(CCn4ccnc4)c4ccccc34)n2)c(OC)c1OC [Example 16, N-((5-(1-(2-(1H-imidazol-1-yl)ethyl)-1H-indazol-3-yl)-1,2,4-oxadiazol-3-yl)methyl)-2,3,4-trimethoxybenzamide] | – | 63 | 24 | 96 | 39 | 48 | 43 | 1.1 | 1.5% | – | Nav isoform inhibition (%) Nav1.5 (Nav1.5 [3]): 64%
